Assay results: US7754713B2, “4-benzimidazol-2-ylpyridazin-3-one derivatives” (Aventis Pharma S.A., priority 2004, dated 2010)

Experiments:
CDK2/Cyclin E = CDK2/Cyclin E (Homo sapiens, UniProt P24941); assay: CDK2/Cyclin E kinase flashplate assay (33P incorporation into biotinylated Rb peptide); assay type: biochemical; settings: CDK2/Cyclin E 20 nM, ATP 1 μM, Rb peptide 10 μM, 30 minute at 30° C.
Experimental: Functional Measurements to Ascertain IC50 Values:
A 96-well streptavidin-coated flashplate is used to assay potency of compounds according to formula (I) against CDK2/Cyclin E kinase. To carry out the assay, biotinylated-Rb peptide substrate (Biotin-[…]-OH) is solubilized at 1 mM in kinase buffer (Hepes 50 mM, NaCl 1 mM, MgCl2 5 mM pH 7.5) as a stock solution conserved at −20° C. in aliquots of 110 μl. The day of the experiment, an aliquot of this solution is thawed and diluted to 14.3 μM in kinase buffer, containing 1 mM dithithreitol (DTT) added in the buffer extemporarily.
70 μl of this solution is added in each well of the flashplate in order to achieve a final concentration of 10 μM (100 μl reactionnal volume). […] 10 μl of each of these solutions (or 10 μl of buffer+DTT for controls) are transferred to the testplate wells in order to achieve 10 μM, 3.33 μM, 1.11 μM, 0.37 μM, 0.12 μM, 0.04 μM and 0.01 μM as final concentrations, 1% DMSO (vol/vol). In each well, 10 μl of a solution of a mix of ^33PγATP/ATP are added in order to achieve 1 μM final concentration and a total of 1 μCi. The kinase reaction is initiated by addition of 10 μl of a solution at 200 nM of CDK2/Cyclin E in kinase buffer+DTT (or buffer+DTT for blanks) in order to achieve 20 nM final concentration. After addition of each reagent, the test-plate is shaked. The plates are incubated 30 minute at 30° C. with a shaking at 650 rpm. At the end of the incubation, the plates are washed 3 times with 300 μl of PBS (without calcium and magnesium) per well. The incorporation of ^33P to the peptide is measured by scintillation counting.

COC(=O)c1ccc2nc(-c3cc(-c4ccncc4)n[nH]c3=O)[nH]c2c1 [Example 1, Methyl 2-(3-oxo-6-pyridin-4-yl-2,3-dihydropyridazin-4-yl)-1H-benzimidazole-5-carboxylate]
IC50 (CDK2/Cyclin E): 124 nM

O=c1[nH]nc(-c2ccncc2)cc1-c1nc2ccc(Cl)cc2[nH]1 [Example 5, 4-(6-Chloro-1H-benzimidazol-2-yl)-6-pyridin-4-yl-2H-pyridazin-3-one]
IC50 (CDK2/Cyclin E): 26 nM

O=c1[nH]nc(-c2ccncc2)cc1-c1nc2ccc(C(F)(F)F)cc2[nH]1 [Example 6, 4-(6-Trifluoromethyl-1H-benzimidazol-2-yl)-6-pyridin-4-yl-2H-pyridazin-3-one]
IC50 (CDK2/Cyclin E): 214 nM

CN1CCN(CCCNC(=O)c2ccc3nc(-c4cc(-c5ccncc5)n[nH]c4=O)[nH]c3c2)CC1 [Example 9, 2-(3-Oxo-6-pyridin-4-yl-2,3-dihydropyridazin-4-yl)-1H-benzimidazole-5-carboxylic acid [3-(4-methylpiperazin-1-yl)propyl]amide]
melting point: > 30 °C (dec.)
